These results are taken from ChEMBL document CHEMBL5034026, “Design, synthesis and evaluation of 2'-acetylene-7-deaza-adenosine phosphoamidate derivatives as anti-EV71 and anti-EV-D68 agents” (Eur J Med Chem, 2021).

The structures appear in SMILES notation. pIC50: −log10 of the molar value.

Data set [1] is described as follows: Tmax in CD-1 mouse at 5 mg/kg, iv by LC-MS/MS. The following applies: in vivo. Format: ADME, organism-based.
The subject of a further data set is enterovirus D68. Nature of the data set: Antiviral activity against Enterovirus D68 infected in human RD cells assessed as inhibition of viral replication measured after 4 days by Cell Titer-Glo luminescent cell viability assay. It is filed as functional, organism-based. The following applies: Enterovirus D, 96 h.
Another data set relates to Enterovirus A71. Kind of data set: Antiviral activity against Enterovirus A71 infected in human RD cells assessed as inhibition of viral replication measured after 4 days by Cell Titer-Glo luminescent cell viability assay. It is filed as functional, organism-based. To be noted: Enterovirus A, 96 h. (ATP-based viability assays read luminescence as a measure of living cells.)

The test system of another data set is RD. Kind of data set: (§1) Cytotoxicity against human RD cells assessed as reduction in cell viability by Cell Titer-Glo luminescent cell viability assay. It is filed as cell-based. The following applies: rd.
A short description of data set [2]: Cmax in CD-1 mouse at 25 mg/kg, po by LC-MS/MS. Format: ADME, organism-based. Also noted: route oral, dose 25 mg/kg. The following applies: in vivo.
Data set [3] is described as follows: Selectivity index, ratio of CC50 for human RD cells to IC50 for Enterovirus D68 infected in human RD cells. Format: toxicity, cell-based. To be noted: read-out: Selectivity Index.
The nature of data set [4]: AUC ( 0 to infinity ) in CD-1 mouse at 25 mg/kg, po by LC-MS/MS. Details: time infinity, route oral, dose 25 mg/kg. The following applies: in vivo. It is filed as ADME, organism-based.
Data set [5] is described as follows: AUC ( 0 to last) in CD-1 mouse at 25 mg/kg, po by LC-MS/MS. It is filed as ADME, organism-based. Also noted: time 0 - last, route oral, dose 25 mg/kg. The following applies: in vivo.
Data set [6] is described as follows: Cmax in CD-1 mouse at 5 mg/kg, iv by LC-MS/MS. Details: route intravenous, dose 5 mg/kg. Format: ADME, organism-based. The following applies: in vivo.
Data set [7] in a line: Half life in CD-1 mouse at 25 mg/kg, po by LC-MS/MS. Format: ADME, organism-based. The following applies: in vivo.
Data set [8] in a line: AUC ( 0 to last) in CD-1 mouse at 5 mg/kg, iv by LC-MS/MS. Also noted: time 0 - last, route intravenous, dose 5 mg/kg. Format: ADME, organism-based. The following applies: in vivo.
The nature of data set [9]: AUC ( 0 to infinity ) in CD-1 mouse at 5 mg/kg, iv by LC-MS/MS. Format: ADME, organism-based. Also noted: route intravenous, time infinity, dose 5 mg/kg. To be noted: in vivo.
The nature of data set [10]: Half life in CD-1 mouse at 5 mg/kg, iv by LC-MS/MS. Format: ADME, organism-based. To be noted: in vivo.
The nature of data set [11]: Tmax in CD-1 mouse at 25 mg/kg, po by LC-MS/MS. It is filed as ADME, organism-based. To be noted: in vivo.
Data set [12] in a line: Selectivity index, ratio of CC50 for human RD cells to IC50 for Enterovirus A71 infected in human RD cells. Format: toxicity, cell-based. The following applies: read-out: Selectivity Index.
Data set [13] is described as follows: AUClast in CD-1 mouse assessed as parent NITD008 level at 5 mg/kg, iv by LC-MS/MS analysis. To be noted: in vivo. It is filed as ADME, organism-based. Also noted: route intravenous, time 0 - last, dose 5 mg/kg.
Data set [14] can be described thus: Tmax in CD-1 mouse assessed as parent NITD008 level at 5 mg/kg, iv by LC-MS/MS analysis. Format: ADME, organism-based. To be noted: in vivo.
A short description of data set [15]: Cmax in CD-1 mouse assessed as parent NITD008 level at 25 mg/kg, po by LC-MS/MS analysis. The following applies: in vivo. Format: ADME, organism-based. Also noted: route oral, dose 25 mg/kg.
The nature of data set [16]: AUClast in CD-1 mouse assessed as parent NITD008 level at 25 mg/kg, po by LC-MS/MS analysis. It is filed as ADME, organism-based. Also noted: route oral, time 0 - last, dose 25 mg/kg. The following applies: in vivo.
Data set [17] in a line: as §1. The following applies: RD cells. Format: cell-based.
Data set [18] in a line: Cmax in CD-1 mouse assessed as parent NITD008 level at 5 mg/kg, iv by LC-MS/MS analysis. Format: ADME, organism-based. Also noted: route intravenous, dose 5 mg/kg. The following applies: in vivo.
Data set [19] in a line: AUCinf in CD-1 mouse assessed as parent NITD008 level at 5 mg/kg, iv by LC-MS/MS analysis. Format: ADME, organism-based. Details: route intravenous, time infinity, dose 5 mg/kg. To be noted: in vivo.
Data set [20] can be described thus: AUCinf in CD-1 mouse assessed as parent NITD008 level at 25 mg/kg, po by LC-MS/MS analysis. Format: ADME, organism-based. Also noted: route oral, time infinity, dose 25 mg/kg. The following applies: in vivo.
Data set [21] in a line: Tmax in CD-1 mouse assessed as parent NITD008 level at 25 mg/kg, po by LC-MS/MS analysis. It is filed as ADME, organism-based. To be noted: in vivo.
Data set [22] in a line: Half life in CD-1 mouse assessed as parent NITD008 level at 5 mg/kg, iv by LC-MS/MS analysis. To be noted: in vivo. It is filed as ADME, organism-based.
Data set [23] can be described thus: Half life in CD-1 mouse assessed as parent NITD008 level at 25 mg/kg, po by LC-MS/MS analysis. Format: ADME, organism-based. To be noted: in vivo.

Consider `C#C[C@@]1(O)[C@H](O)[C@@H](CO)O[C@H]1n1ccc2c(N)ncnc21`, for which the time to peak (Tmax) (usually the time from dosing to the highest level) in [1] is 1.98 min; in data set [11] it was 0.83 h. The pIC50 (in general, the negative decadic logarithm of the IC50, by convention in mol/L) is 6.64 in the data set on enterovirus D68 and 6.26 with Enterovirus A71. Moreover, the half-maximal cytotoxic concentration (CC50) (usually the concentration giving 50% cytotoxicity) with RD was over 20000 nM. For the same compound, the Cmax (commonly the peak of the concentration-time curve) was 579 ng/mL in data set [2] and 6760 ng/mL in data set [6]. In addition, the selectivity ratio is over 87.1 in data set [3] and over 36.2 in [12]. Moreover, the AUC(0-inf) (usually total exposure, with the tail of the curve extrapolated) was 2790 ng·h/mL in data set [4] and 2080 ng·h/mL in [9]. Further, the values for the area under the curve AUC(0-t) in data set [5] and in [8] were 2700 ng·h/mL and 1970 ng·h/mL, respectively. Besides, the half-life (commonly the time in which the quantity being followed falls by half) in data set [7] was 5.09 h; in data set [10], 9.1 h.
For `C#C[C@@]1(O)[C@H](O)[C@@H](COP(=O)(N[C@@H](C)C(=O)OC2CCCCC2)Oc2ccccc2)O[C@H]1n1ccc2c(N)ncnc21` (stereo not given in full), the results for the AUClast in [13] and in data set [16] were 522 ng·h/mL and 257 ng·h/mL, respectively. The pIC50 in the data set with enterovirus D68 was 6.77; in the data set with Enterovirus A71, 6.72. Besides, the Tmax in [14] was determined as 1.98 min; in data set [21] it was 0.5 h. Also, the Cmax came out at 70 ng/mL in data set [15] and 1421 ng/mL in data set [18]. The CC50 in [17] was 22200 nM. The selectivity ratio in data set [3] came out at 131; in [12], 117. The AUC (commonly the area under the concentration-time curve, a measure of exposure) in [19] was found to be 558 ng·h/mL; in data set [20] it was 281 ng·h/mL. In addition, the t1/2 in data set [22] stood at 9.8 h; in data set [23], 5.68 h.
